Assay results from patent publication US11524956B2, “Alkyne substituted quinazoline compound and methods of use” (Newgen Therapeutics, Inc., priority 2011, dated 2022).
Where two headings read alike, the source gives them in different places.

Columns and labels:
[1] = test system: H1975 xenograft; assay: In vivo efficacy in NCI-H1975 xenograft mouse model; set-up: species or system Balb/c nude mice; settings: KU113 10 and 20 mg/kg po qd; afatinib 20 mg/kg; erlotinib 100 mg/kg
Description: H1975 cells were purchased from ATCC were cultured in RPMI1640±10% FBS-1% P/S antibiotics. Balb/c nude mice, female, 6-8 week, 18+2 g were purchased from. Shanghai Laboratory Animal Co. Ltd. The purchased mice were adapted to the environment for 7 days before use, and were housed at 22-25° C. with humidity 40-70%, and light cycle with fluorescent light for 12-hour light (8:00-20:00) 12-hour dark.
Formulation: Erlotinib, afatinib (BIBW2992), and KU113 were dissolved in 2% DMA and 98% (40% HP-β-CD deionized water).
The cancer cells (H1975) were amplified and implanted into the nude mice (right flank) with 5.0×10^6 cells in PBS and 1:1 with matrigel in a total volume of 0.1 ml/mouse. […]
The mice were monitored twice daily for appearance and behavior, and for signs of morbidity and/or mortality. The tumor volume was measured twice a week, and the body weight was measured immediately before measuring the tumor volume throughout the whole study. […]
Tumor sizes were measured twice weekly in two dimensions using a caliper, and the volume was expressed in mm^3 using the formula: V=½×a×b^2 where a and b are the long and short diameters of the tumor, respectively. […]

[2] = test system: BT474 cells; assay: Cell proliferation inhibition assay for BT474 (CCK-8); type: cell-based; settings: Homo sapiens, BT-474; 72h
Description: Human breast cancer BT474 cells was cultured in low glucose DMEM (Life Technologies 12320-032) containing 10% fetal bovine serum (FBS) at 37° C. in a humidified 10% CO2, 90% air incubator. Cells were harvested using trypsin EDTA, counted using a haemocytometer, and plated 10000 cell/well in a 96-well clear tissue culture plate. The cells were incubated for 24 h at 37° C. to allow adherence. A serials of concentrations of each compound (ranging from 30 um to 0.16 nM, 5-fold dilution) in 96-well plate, and incubated for 72h. Each concentration was tested in triplicate wells. During the cell proliferation assay, BT474 cells were cultured in low-glucose DMEM containing 5% FBS, 50 ug/ml gentamicin, and 0.3% v/v DMSO. The culture medium was removed via aspiration, and the cell viability was detected by using CCK-8 cell proliferation kit. The IC50 value measured for each compound in Examples 1 to 7 is <100 nM.

[3] = Rat brain concentration; type: in vivo, Sprague Dawley rats; settings: Sprague Dawley, po, P.O. 5 mg/Kg; for concentration at 2 h / concentration at 4 h / concentration at 24 h: brain, 5 mg/kg
Description: Brain concentration: Three rats are for brain collection (2h) only. Three rats are for brain collection (4 h) only. The rest 3 rats are for plasma (9 time points) and brain collection (24h).
Brain Collection and Tissue Processing: Post blood collection, the brain was first perfused intracardially with ˜150 mL of ice-cold, 0.1 M Phosphate Buffered Saline (PBS) at pH7.4. Then, the dura was removed before weighing the brain. The brain was then dissected into smaller pieces, rinsed twice with ˜10 mL PBS, and then flash frozen on dry ice, and stored at −80° C. before analysis.
Before tissue processing, rat brains were thawed. For the preparation of analytical standards, purchased frozen rat brains (from Pelfreez) were similarly thawed, dissected, rinsed with PBS, and 100 μL of Compound A stock solution (at 500 ng/mL and 1, 2 5, 10, and 50 μg/mL in acetonitrile) was spiked directly into the tissue. Both Compound A dosed and spiked brains then underwent the same processing procedures described below.
Briefly, 2 mL of water was added to each brain before homogenization. Homogenize the brain in 2 to 3 sessions, each approximately 15 sec. The mechanical probe of the homogenizer was cleansed in water, 70% ethanol, and ethyl acetate after each sample. The resulting brain homogenates were then extracted with ethyl acetate three times (14 mL total), and centrifuged to separate the aqueous and organic phases after each extraction. Per brain, pooled organic phase were evaporated under a stream of nitrogen at 40° C. and the residues were reconstituted with 4 mL of mobile phase B. Compound A spiked brain samples in the 4 mL solutions had final concentrations of 12.5, 25, 50, 125, 250, 1250 ng/mL. The reconstituted samples were incubated for ˜15 minutes at 60° C. and, vortexed for 10 minutes to fully dissolve the analytes. The samples were centrifuged, and then further diluted with Mobile phase B (shown below) before LC/MS/MS analysis. Dilute 20 μL of reconstituted samples with 1.5 mL mobile phase B. Transfer and inject supernatant to […] system for analysis.

[4] = test system: NCI-H1975 cells; assay: Anti-proliferation assay of NCI-H1975 cells (CCK-8); type: cell-based; settings: Homo sapiens, NCI-H1975, 72 h, 3 days
Description: The anti-proliferative assays were performed in triplicates. 3000 cell/well of N1975 cells were seeded in 96-well plate (medium: RPMI 1640, 5% FBS. 2 mM L-Glutamine). After 24 h, removal the medium in the plate was followed by the addition of compound of serial dilution in medium to the wells. After 3 days, the cells were treated with CCK-8 kit and incubated for additional 4 hours at 37° C. The plate was read at 450 nm. The log of the fractional growth inhibition was plotted against the log of the drug concentration, and the IC50 values were interpolated from the resulting linear regression curve fit. The IC50 value measured for Compound NT113 is <1000 nM.

CN(C)C/C=C/C(=O)Nc1cc2c(Nc3ccc(F)c(Cl)c3)ncnc2cc1C#C[C@@H]1[C@H]2COC[C@@H]12 [Example 4, (E)-N-(4-(3-chloro-4-fluorophenylamino)-7-(2-((1R,5S,6s)-3-oxa-bicyclo[3.1.0]hexan-6-yl)ethynyl)quinazolin-6-yl)-4-(dimethylamino)but-2-enamide]
anticancer effect on H1975 xenograft versus comparators [1]: significantly more effective than erlotinib; and comparable with afatinib
IC50 [2]: < 100 nM
concentration at 2 h ([3]; 2 hr, read-out: Brain Conc. (ng/g) Mean): 156 ng/g
concentration at 2 h ([3]; 2 hr, read-out: Brain Conc. (ng/g) No. 1): 118 ng/g
concentration at 2 h ([3]; 2 hr, read-out: Brain Conc. (ng/g) No. 2): 156 ng/g
concentration at 2 h ([3]; 2 hr, read-out: Brain Conc. (ng/g) No. 3): 194 ng/g
concentration at 4 h ([3]; 4 hr, read-out: Brain Conc. (ng/g) Mean): 173 ng/g
concentration at 4 h ([3]; 4 hr, read-out: Brain Conc. (ng/g) No. 1): 127 ng/g
concentration at 4 h ([3]; 4 hr, read-out: Brain Conc. (ng/g) No. 2): 209 ng/g
concentration at 4 h ([3]; 4 hr, read-out: Brain Conc. (ng/g) No. 3): 185 ng/g
concentration at 24 h ([3]; 24 hr, read-out: Brain Conc. (ng/g) Mean): 17.6 ng/g
concentration at 24 h ([3]; 24 hr, read-out: Brain Conc. (ng/g) No. 1): 26 ng/g
concentration at 24 h ([3]; 24 hr, read-out: Brain Conc. (ng/g) No. 2): 11 ng/g
concentration at 24 h ([3]; 24 hr, read-out: Brain Conc. (ng/g) No. 3): 15.8 ng/g
Kp at 2 h ([3]; brain/plasma, 2 hr, read-out: B/P ratio): 4
Kp at 4 h ([3]; brain/plasma, 4 hr, read-out: B/P ratio): 4.4
Kp at 24 h ([3]; brain/plasma, 24 hr, read-out: B/P ratio): 8.7
IC50 ([4]; read-out: Cell Proliferation Inhibition IC50 (nM) NCI-H1975): 100 to 1000 nM
IC50 ([4]; read-out: IC50 NCI-H1975 anti-proliferation): < 1000 nM
